Data as given in article PMC12811658, “Design, Synthesis, and Structural Evolution of Pseudo‐Natural Product IDO1 Inhibitors and Degraders” (Angewandte Chemie (International Ed. in English), 2025).

Tests used:
recombinant human IDO1 = target: T1, recombinant human IDO1 (Homo sapiens, UniProt P14902); assay: IDO1 enzymatic assay in vitro; assay type: biochemical; conditions: for inhibition at 14 µM / IDO1 activity IC50 [µM] (in vitro assay) / IC50: pre-incubation 37 °C 45 min; for inhibition at 14 µM: mean ± SD; for IDO1 activity IC50 [µM] (in vitro assay) / IC50: determined if inhibition at 14 µM higher than 50%; for in vitro IDO1 inhibition (in words): up to 14 µM, incubated with IDO1 for 45 min
T1 construct: The GST-tag of IDO1 was removed to obtain untagged full-length IDO1l using PreScission protease; GST (N, cleaved yes); made in house; own inference
T1 sequence (P14902 whole entry): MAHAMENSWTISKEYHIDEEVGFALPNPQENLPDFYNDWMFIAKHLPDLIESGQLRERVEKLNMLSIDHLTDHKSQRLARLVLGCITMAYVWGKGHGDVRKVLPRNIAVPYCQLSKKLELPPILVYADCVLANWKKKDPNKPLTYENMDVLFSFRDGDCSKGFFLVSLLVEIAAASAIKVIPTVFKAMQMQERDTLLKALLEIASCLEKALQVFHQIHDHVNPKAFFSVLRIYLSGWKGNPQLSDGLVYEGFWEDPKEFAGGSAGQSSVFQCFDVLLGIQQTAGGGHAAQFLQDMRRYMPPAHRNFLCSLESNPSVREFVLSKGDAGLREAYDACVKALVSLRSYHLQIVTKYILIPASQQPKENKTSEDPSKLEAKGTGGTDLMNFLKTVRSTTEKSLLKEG

[1] = tested on: Kyn levels in BxPC3 cells (kynurenine generated by IDO1); assay: Cellular Kyn assay (automated Kyn screening assay); assay type: cell-based; conditions: for IC50: Homo sapiens, BXPC-3, 48 h, IFN-γ, L-Trp and compounds 48 h, mean ± SD, read-out: IC50 (Kyn assay), reduction of kynurenine levels
[2] = target: IDO1 protein levels in BxPC3 cells (Homo sapiens, UniProt P14902); assay: IDO1 immunoblotting (degradation); assay type: cell-based; set-up: endogenous in cells; host or cells: BxPC3 (DSMZ), IFN-γ stimulated; conditions: for Max. degradation (%): 24 h incubation, mean ± SD; for Dmax at 0.1 µM: BXPC-3, @100 nM
Chain of IDO1 protein levels in BxPC3 cells (P14902 whole entry): as above

Row | SMILES | inhibition at 14 µM (recombinant human IDO1) | IC50 [1] | Max. degradation (%) ([2]; 10 nM) | Max. degradation (%) ([2]; 100 nM) | IC50 (recombinant human IDO1) | Dmax at 0.1 µM ([2]; BxPC3 cells) | in vitro IDO1 inhibition (in words) (recombinant human IDO1) | Degradation Efficiency (%) ([2]; 100 nM, BxPC3 cells, heatmap Fig. 3d) | IDO1 activity IC50 [µM] (in vitro assay) (recombinant human IDO1) | fold increase in potency compared to iDeg-2 in Kyn assay [1]
1 | CC(C)(C)c1ccc(S(=O)(=O)N2C[C@H]3C[C@H]4C[C@H](C4(C)C)[C@@]3(COC(=O)Nc3ccc(I)cc3)C2)c(Br)c1 [compound 83, ((3aS,4R,6R,7aS)-2-((2-bromo-4-(tert-butyl)phenyl)sulfonyl)-5,5-dimethyloctahydro-3aH-4,6-methanoisoindol-3a-yl)methyl (4-iodophenyl)carbamate] | < 25% | 0.035 ± 0.006 µM | 24 ± 15 (3) % | 56 ± 4 (3) % | – | – | – | – | – (Inactive: >75% Kyn level observed up to a concentration of 14 µM and no IC50 value obtained) | –
2 | COC(=O)C(C)(C)c1ccc(S(=O)(=O)N2C[C@H]3C[C@H]4C[C@H](C4(C)C)[C@@]3(COC(=O)Nc3ccc(I)cc3)C2)c(OC)c1 [compound 93, Methyl 2-(4-(((3aS,4R,6R,7aS)-3a-((((4-iodophenyl)carbamoyl)oxy)methyl)-5,5-dimethyloctahydro-2H-4,6-methanoisoindol-2-yl)sulfonyl)-3-methoxyphenyl)-2-methylpropanoate] | < 25% | 0.073 ± 0.041 µM | – | – | – | – | – | – | – (Inactive: >75% Kyn level observed up to a concentration of 14 µM and no IC50 value obtained) | –
3 | C#Cc1ccc(NC(=O)OC[C@]23CN(S(=O)(=O)c4ccc(C(C)(C)C)cc4)C[C@H]2C[C@H]2C[C@@H]3C2(C)C)cc1 [43 (iDeg-3), ((3aS,4R,6R,7aS)-2-((4-(tert-butyl)phenyl)sulfonyl)-5,5-dimethyloctahydro-3aH-4,6-methanoisoindol-3a-yl)methyl (4-ethynylphenyl)carbamate] | < 25% | 0.046 ± 0.021 µM | 29 ± 16 (5) % | 62 ± 10 (5) % | – | – | – | 62% | – (Inactive: >75% Kyn level observed up to a concentration of 14 µM and no IC50 value obtained) | three‐fold
4 | COC(=O)C(C)(C)c1ccc(S(=O)(=O)N2C[C@H]3C[C@H]4C[C@H](C4(C)C)[C@@]3(COC(=O)Nc3ccc(I)cc3)C2)c(Cl)c1 [compound 94, Methyl 2-(3-chloro-4-(((3aS,4R,6R,7aS)-3a-((((4-iodophenyl)carbamoyl)oxy)methyl)-5,5-dimethyloctahydro-2H-4,6-methanoisoindol-2-yl)sulfonyl)phenyl)-2-methylpropanoate] | < 25% | 0.043 ± 0.024 µM | – | – | – | – | – | – | – (Inactive: >75% Kyn level observed up to a concentration of 14 µM and no IC50 value obtained) | –
5 | CC(C)(CC(=O)O)c1ccc(S(=O)(=O)N2C[C@H]3C[C@H]4C[C@H](C4(C)C)[C@@]3(COC(=O)Nc3ccc(I)cc3)C2)cc1 [compound 91, 3-(4-(((3aS,4R,6R,7aS)-3a-((((4-iodophenyl)carbamoyl)oxy)methyl)-5,5-dimethyloctahydro-2H-4,6-methanoisoindol-2-yl)sulfonyl)phenyl)-3-methylbutanoic acid] | 59 ± 2% | 0.032 ± 0.007 µM | 27 ± 5 (3) % | 36 ± 2 (3) % | 1.9 ± 0.5 µM | 36 to 54% | – | – | – | –
6 | COc1cc(C(C)(C)C)ccc1S(=O)(=O)N1C[C@H]2C[C@H]3C[C@H](C3(C)C)[C@@]2(COC(=O)Nc2ccc(I)cc2)C1 [compound 82, ((3aS,4R,6R,7aS)-2-((4-(tert-butyl)-2-methoxyphenyl)sulfonyl)-5,5-dimethyloctahydro-3aH-4,6-methanoisoindol-3a-yl)methyl (4-iodophenyl)carbamate] | < 25% | 0.046 ± 0.015 µM | 14 ± 15 (5) % | 59 ± 16 (5) % | – | – | – | – | – (Inactive: >75% Kyn level observed up to a concentration of 14 µM and no IC50 value obtained) | –
7 | CC(C)(C)c1ccc(S(=O)(=O)N2C[C@H]3C[C@H]4C[C@H](C4(C)C)[C@@]3(COC(=O)Nc3ccc(I)cc3)C2)c(I)c1 [compound 84, ((3aS,4R,6R,7aS)-2-((4-(tert-butyl)-2-iodophenyl)sulfonyl)-5,5-dimethyloctahydro-3aH-4,6-methanoisoindol-3a-yl)methyl (4-iodophenyl)carbamate] | 16 ± 4% | 0.042 ± 0.015 µM | inactive | 55 ± 5 (3) % | – | – | – | – | – (Inactive: >75% Kyn level observed up to a concentration of 14 µM and no IC50 value obtained) | –
8 | COc1cc(C(C)(C)C(=O)O)ccc1S(=O)(=O)N1C[C@H]2C[C@H]3C[C@H](C3(C)C)[C@@]2(COC(=O)Nc2ccc(I)cc2)C1 [compound 95, 2-(4-(((3aS,4R,6R,7aS)-3a-((((4-iodophenyl)carbamoyl)oxy)methyl)-5,5-dimethyloctahydro-2H-4,6-methanoisoindol-2-yl)sulfonyl)-3-methoxyphenyl)-2-methylpropanoic acid] | 57 ± 3% | 0.08 ± 0.022 µM | Inactive (5) | Inactive (5) | 0.67 ± 0.1 µM | – | – | – | – | –

Stronger by IC50 [1], values ahead:

Row | inhibition at 14 µM (recombinant human IDO1) | IC50 [1] | Max. degradation (%) ([2]; 10 nM) | Max. degradation (%) ([2]; 100 nM) | IC50 (recombinant human IDO1) | Dmax at 0.1 µM ([2]; BxPC3 cells) | in vitro IDO1 inhibition (in words) (recombinant human IDO1) | Degradation Efficiency (%) ([2]; 100 nM, BxPC3 cells, heatmap Fig. 3d) | SMILES | IDO1 activity IC50 [µM] (in vitro assay) (recombinant human IDO1) | fold increase in potency compared to iDeg-2 in Kyn assay [1]
9 | 39 ± 7% | 0.01 ± 0.004 µM | 61 ± 2 (3) % | 71 ± 11 (3) % | > 14 µM | – | – | – | C#Cc1ccc(NC(=O)OC[C@]23CN(S(=O)(=O)c4ccc(C(C)(C)C)cc4C4CC4)C[C@H]2C[C@H]2C[C@@H]3C2(C)C)cc1 [compound 100, ((3aS,4R,6R,7aS)-2-((4-(tert-butyl)-2-cyclopropylphenyl)sulfonyl)-5,5-dimethyloctahydro-3aH-4,6-methanoisoindol-3a-yl)methyl (4-ethynylphenyl)carbamate] | – | –
10 | 62 ± 1% | 0.014 ± 0.003 µM | 15 ± 2 (3) % | 20 ± 12 (3) % | 0.19 ± 0.1 µM | – | – | – | CC(C)(C(=O)O)c1ccc(S(=O)(=O)N2C[C@H]3C[C@H]4C[C@H](C4(C)C)[C@@]3(COC(=O)Nc3ccc(I)cc3)C2)c(Cl)c1 [compound 96, 2-(3-chloro-4-(((3aS,4R,6R,7aS)-3a-((((4-iodophenyl)carbamoyl)oxy)methyl)-5,5-dimethyloctahydro-2H-4,6-methanoisoindol-2-yl)sulfonyl)phenyl)-2-methylpropanoic acid] | – | –
11 | 66 ± 8% | 0.03 ± 0.003 µM | 23 ± 22 (5) % | 46 ± 21 (5) % | 0.82 ± 0.14 µM | 36 to 54% | – | – | CC(C)(C(=O)O)c1ccc(S(=O)(=O)N2C[C@H]3C[C@H]4C[C@H](C4(C)C)[C@@]3(COC(=O)Nc3ccc(I)cc3)C2)cc1 [92 (iDeg-5), 2-(4-(((3aS,4R,6R,7aS)-3a-((((4-iodophenyl)carbamoyl)oxy)methyl)-5,5-dimethyloctahydro-2H-4,6-methanoisoindol-2-yl)sulfonyl)phenyl)-2-methylpropanoic acid] | – | 4 fold
12 | 25 ± 5% | 0.025 ± 0.005 µM | 31 ± 6 (3) % | 65 ± 10 (14) % | > 14 µM | – | weak inhibitors | – | Cc1cc(C(C)(C)C)ccc1S(=O)(=O)N1C[C@H]2C[C@H]3C[C@H](C3(C)C)[C@@]2(COC(=O)Nc2ccc(I)cc2)C1 [79 (iDeg-4), ((3aS,4R,6R,7aS)-2-((4-(tert-butyl)-2-methylphenyl)sulfonyl)-5,5-dimethyloctahydro-3aH-4,6-methanoisoindol-3a-yl)methyl (4-iodophenyl)carbamate] | – | –
13 | 35 ± 8% | 0.013 ± 0.003 µM | 25 ± 10 (3) % | 56 ± 4 (3) % | > 14 µM | – | weak inhibitors | – | CCc1cc(C(C)(C)C)ccc1S(=O)(=O)N1C[C@H]2C[C@H]3C[C@H](C3(C)C)[C@@]2(COC(=O)Nc2ccc(I)cc2)C1 [compound 80, ((3aS,4R,6R,7aS)-2-((4-(tert-butyl)-2-ethylphenyl)sulfonyl)-5,5-dimethyloctahydro-3aH-4,6-methanoisoindol-3a-yl)methyl (4-iodophenyl)carbamate] | – | –
14 | 65 ± 4% | 0.005 ± 0.001 µM | 11 ± 24 (3) % | 18 ± 19 (3) % | 0.11 ± 0.02 µM | – | – | – | Cc1cc(C(C)(C)C(=O)O)ccc1S(=O)(=O)N1C[C@H]2C[C@H]3C[C@H](C3(C)C)[C@@]2(COC(=O)Nc2ccc(I)cc2)C1 [compound 97, 2-(4-(((3aS,4R,6R,7aS)-3a-((((4-iodophenyl)carbamoyl)oxy)methyl)-5,5-dimethyloctahydro-2H-4,6-methanoisoindol-2-yl)sulfonyl)-3-methylphenyl)-2-methylpropanoic acid] | – | –
15 | 39 ± 1% | 0.019 ± 0.006 µM | 31 ± 18 (3) % | 55 ± 4 (3) % | > 14 µM | – | weak inhibitors | – | CC(C)(C)c1ccc(S(=O)(=O)N2C[C@H]3C[C@H]4C[C@H](C4(C)C)[C@@]3(COC(=O)Nc3ccc(I)cc3)C2)c(C2CC2)c1 [compound 81, ((3aS,4R,6R,7aS)-2-((4-(tert-butyl)-2-cyclopropylphenyl)sulfonyl)-5,5-dimethyloctahydro-3aH-4,6-methanoisoindol-3a-yl)methyl (4-iodophenyl)carbamate] | – | –
